Reference: patent US5232922A, “Imidazole compounds, processes for their preparation, pharmaceuticals based on these compounds and some intermediates” (priority 1990, dated 1993)
Structures can show the parent of a compound that is named as a salt. Where two headings read alike, the source gives them in different places.

How the values were obtained:
[1] = test system: laser-induced thrombosis in mesenterial arterioles; test: Inhibition of laser-induced thrombosis in mesenterial arterioles of the rat; assay type: in vivo, rat (female Sprague-Dawley); settings: for inhibition in vivo at 10 mg/kg / inhibition in vivo at 20 mg/kg: Rattus norvegicus, po, read-out: Percentage change vs control (inhibition of laser-induced thrombosis); for inhibition in vivo at 10 mg/kg: 10 mg/kg p.o.
[2] = Acute toxicity (LD50 range); settings: mouse, in vivo, iv, single administration, NMRI mice, 7 days
Procedure: The determination of the LD50 ranges was carried out in standard fashion by means of the mortality occurring in the course of 7 days in NMRI mice after single intravenous (i.v.) or intraperitoneal (i.p.) administration (NMRI=NIH Medical Research Institute).

[3] = test system: skeletal muscle of the rat (chronic ischemic); test: Effect on the contractility of the skeletal muscle after chronic ischemia (tiring index); assay type: in vivo, rat (male Wistar); settings: for TI of ischemic treated muscle: tiring index = maximum contractility / residual force after 5 min stimulation; for change in vivo at 6 mg/kg: Rattus norvegicus, po, 168 h, read-out: Percentage change (TI of ischemic treated muscle vs TI of normal non-treated muscle)
Source text: 1) Effect on the Contractility of the Skeletal Muscle After Chronic Ischemia
In recent years, a marked change has taken place in ideas about the pathophysiology of chronic peripheral arterial occlusive disease as scientific interest has to an increasing extent shifted from the macrocirculation to the microcirculation. Disturbances in the microcirculation therefore manifest themselves in an undersupply of substrates with tissue ischemia resulting therefrom which, in turn, leads to an impairment in the function of the extremity concerned. The logical consequence of this is that the target organ skeletal muscle comes more and more into the forefront. […] The clinical activity is in fact also consistently determined in humans with the aid of the painless walking distance on the moving walkway.
Male Wistar rats having a body weight of 380 to 410 g were used as experimental animals. Under hexobarbital anesthesia (®Evipan--sodium, 200 mg/kg BW (=body weight) i.p.), a unilateral ligature of the right femoral artery was applied to the animals in the groin. After sprinkling penicillin sulfonamide powder for antibiotic wound care, the small operation wound was closed and the animals were continuously observed until they were completely awake. One week later, the administration of substance began by oral administration using a stomach tube (6 mg/kg BW, carboxymethylcellulose-sodium suspension) and was continued for 7 days (single administration per day, about 7h30 to 8h30). The contractility was measured 24 h after the last administration of substance in order to exclude acute effects, to be precise by the following experimental protocol:
Superfusion with physiological saline solution (37° C.) was used to avoid drying out and cooling. The mean arterial blood pressure was recorded continuously via Statham (=blood pressure measuring device) by means of a cannulated caroted artery to control the physiological status of the animals during the experiment. All animals breathed spontaneously by means of an inserted tracheal tube.
After these preparations, the muscle was made to contract (Stimulator I, Hugo Sachs, Federal Republic of Germany) by direct electrical stimulation (2.5 mA, 2 Hz). The absolute contractility in grams at various times of stimulation was used as the measured parameter. […] If the maximum contractility at the start of stimulation is now divided by the residual force remaining after 5 minutes' tiring stimulation, a "tiring index TI" for the muscle concerned can be calculated; the ability to tire here is larger the larger TI is numerically.
4 to 6 individual experiments were carried out for each test preparation.

[4] = 6 mg/kg p.o. over 7 days, n = 4-6
[5] = 6 mg/kg p.o. over 7 days, n = 4-6, smaller value = more effective

Cn1cnc(S(=O)(=O)N2CCS(=O)(=O)CC2)c1 [Example 57, 4-(1-Methyl-4-imidazolesulfonyl)tetrahydro-4H-1,4-thiazine-1,1-dioxide]
inhibition in vivo at 10 mg/kg [1]: 19%

Cn1cnc(S(=O)(=O)NCCC[N+]2(C)CCOCC2)c1 [Example 56, 4-Methyl-4-[3-(1-methyl-4-imidazolesulfamoyl)-1-propyl]morpholinium iodide]
LD50 at 168 h [2]: > 100 mg/kg
inhibition in vivo at 10 mg/kg [1]: 24%

Cl.Cn1cnc(S(=O)(=O)NCc2ccc(CN3CCOCC3)cc2)c1 [Example 14, N-[4-(morpholinomethyl)benzyl]-1-methyl-4-imidazolesulfonamide hydrochloride]
TI of ischemic treated muscle [3, 4]: 2.57
change in vivo at 6 mg/kg [3, 5]: 13.4%
LD50 at 168 h [2]: > 100 mg/kg
inhibition in vivo at 20 mg/kg ([1]; 20 mg/kg p.o.): 13%

CN1CCN(CCCNS(=O)(=O)c2cn(C)cn2)CC1 [Example 27, N-[3-(4-Methylpiperazino)propyl]-1-methyl-4-imidazolesulfonamide dihydrogenfumarate]
TI of ischemic treated muscle [3, 4]: 2.6
change in vivo at 6 mg/kg [3, 5]: 32.6%
LD50 at 168 h [2]: > 100 mg/kg
inhibition in vivo at 20 mg/kg ([1]; 20 mg/kg p.o.): 23%

Cn1cnc(S(=O)(=O)NC(CN2CCOCC2)CN2CCOCC2)c1 [Example 38, N-(1,3-Dimorpholino-2-propyl)-1-methyl-4-imidazolesulfonamide]
TI of ischemic treated muscle [3, 4]: 2.18
change in vivo at 6 mg/kg [3, 5]: 10.1%
inhibition in vivo at 10 mg/kg [1]: 21%

Cn1cnc(S(=O)(=O)Oc2ccc(N3CCN(S(=O)(=O)c4ncn(C)c4Cl)CC3)cc2)c1Cl [Example 41, 1-(1-Methyl-5-chloro-4-imidazolesulfonyl)4-[4-(1-methyl-5-chloro-4-imidazolesulfonyloxy)phenyl]piperazine]
TI of ischemic treated muscle [3, 4]: 2.18
change in vivo at 6 mg/kg [3, 5]: 18.5%

Cl.Cn1cnc(S(=O)(=O)NCCCN2CCN(Cc3ccccc3)CC2)c1 [Example 26, N-[3-(4-benzyl-1-piperazinyl)-propyl]-1-methyl-4-imidazolesulfonamide hydrochloride]
TI of ischemic treated muscle [3, 4]: 2.49
change in vivo at 6 mg/kg [3, 5]: 25.7%
inhibition in vivo at 10 mg/kg [1]: 24%

Cl.Cn1cnc(S(=O)(=O)NCCN2CCCC2)c1 [Example 20, N-(2-pyrrolidinoethyl)-1-methyl-4-imidazolesulfonamide hydrochloride]
TI of ischemic treated muscle [3, 4]: 2.56
change in vivo at 6 mg/kg [3, 5]: 23.1%

Cl.Cn1cnc(S(=O)(=O)NCCCN2CCOCC2)c1Cl [Example 32, N-(3-Morpholinopropyl)-5-chloro-1-methyl-4-imidazolesulfonamide hydrochloride]
TI of ischemic treated muscle [3, 4]: 2.51
change in vivo at 6 mg/kg [3, 5]: 6.4%
LD50 at 168 h [2]: > 200 mg/kg
inhibition in vivo at 10 mg/kg [1]: 21%

Cn1cnc(S(=O)(=O)NCCCCN2CCC3(CC2)OCCO3)c1 [Example 19, hydrochloride]
TI of ischemic treated muscle [3, 4]: 2.20
change in vivo at 6 mg/kg [3]: 11.1%

Cn1cnc(S(=O)(=O)NCCc2ccc(OCC(=O)O)cc2)c1Cl [Example 52, 4-[2-(5-Chloro-1-methyl-4-imidazolesulfonyl)aminoethyl]phenoxyacetic acid]
TI of ischemic treated muscle [3, 4]: 2.16
change in vivo at 6 mg/kg [3, 5]: 17.4%

CC(CNS(=O)(=O)c1cn(C)cn1)CN1CCOCC1.Cl (stereo not drawn) [Example 12, N-(3-morpholino-2-methyl-1-propyl)-1-methyl-4-imidazolesulfonamide hydrochloride]
LD50 at 168 h [2]: > 100 mg/kg
inhibition in vivo at 20 mg/kg ([1]; 20 mg/kg p.o.): 24%

CC1CCCCN1CCCNS(=O)(=O)c1cn(C)cn1.Cl (stereo not drawn) [Example 17, N-[3-(2-methylpiperidino)-propyl]-1-methyl-4-imidazolesulfonamide hydrochloride]
TI of ischemic treated muscle [3, 4]: 2.04
change in vivo at 6 mg/kg [3, 5]: -14.3%

Cn1cnc(S(=O)(=O)NCCc2ccc(OCC(=O)O)cc2)c1 [Example 51, 4-[2-(1-Methyl-4-imidazolesulfonyl)aminoethyl]phenoxyacetic acid]
TI of ischemic treated muscle [3, 4]: 2.92
change in vivo at 6 mg/kg [3, 5]: 23.7%

Cn1cnc(S(=O)(=O)NCCCCCCNS(=O)(=O)c2ncn(C)c2Cl)c1Cl [Example 47, 1,6-bis(5-chloro-1-methyl-4-imidazolesulfonamido)hexane]
TI of ischemic treated muscle [3, 4]: 2.46
change in vivo at 6 mg/kg [3, 5]: 6%

1-[3-(1-methyl-5-imidazolesulfonyl)-aminopropyl]-2-pyrrolidinone [Example 43]
Percentage change (TI of ischemic treated muscle vs TI of normal non-treated muscle) [3, 5]: +29.4%
TI of ischemic treated muscle [3, 4]: 2.29
Percentage change vs control (inhibition of laser-induced thrombosis) ([1]; 20 mg/kg p.o.): 15%

CCCCN(CCCN1CCOCC1)S(=O)(=O)c1cn(C)cn1.Cl [Example 15, N-butyl-N-(3-morpholino-1-propyl)-1-methyl-4-imidazolesulfonamide hydrochloride]
TI of ischemic treated muscle [3, 4]: 1.96
change in vivo at 6 mg/kg [3, 5]: 10.9%

CN1CCCC1CCNS(=O)(=O)c1cn(C)cn1.Cl (stereo not drawn) [Example 21, N-[2-(1-methyl-2-pyrrolidinyl)-ethyl]-1-methyl-4-imidazolesulfonamide hydrochloride]
TI of ischemic treated muscle [3, 4]: 2.34
change in vivo at 6 mg/kg [3, 5]: 19.4%
inhibition in vivo at 20 mg/kg ([1]; 20 mg/kg p.o.): 24%

Cn1cnc(S(=O)(=O)O)c1 [Example 3, 1-Methyl-4-imidazolesulfonic acid]
TI of ischemic treated muscle [3, 4]: 2.26
change in vivo at 6 mg/kg [3, 5]: 7.1%
inhibition in vivo at 20 mg/kg ([1]; 20 mg/kg p.o.): 23%

Cn1cnc(S(=O)(=O)NCCc2ccc(O)cc2)c1 [Example 45, N-(4-hydroxyphenethyl)-1-methyl-4-imidazolesulfonamide]
TI of ischemic treated muscle [3, 4]: 2.14
change in vivo at 6 mg/kg [3, 5]: 16.3%

COCCN(CCCNS(=O)(=O)c1cn(C)cn1)CCOC [Example 23]
TI of ischemic treated muscle [3, 4]: 2.18
change in vivo at 6 mg/kg [3, 5]: 23.1%

Cn1cnc(S(=O)(=O)NCCN2CCOCC2)c1 [Example 9, N-(2-morpholinoethyl)-1-methyl-4-imidazolesulfonamide]
TI of ischemic treated muscle [3, 4]: 2.47
change in vivo at 6 mg/kg [3, 5]: 10.3%

Cl.Cn1cnc(S(=O)(=O)NCCCN2CCSCC2)c1 [Example 13, N-(3-thiomorpholinopropyl)-1-methyl-4-imidazolesulfonamide hydrochloride]
TI of ischemic treated muscle [3, 4]: 2.95
change in vivo at 6 mg/kg [3, 5]: -10.1%
inhibition in vivo at 20 mg/kg ([1]; 20 mg/kg p.o.): 14%

Cc1nc(S(=O)(=O)NCCCN2CCOCC2)cn1C.Cl [Example 33, N-(3-Morpholinopropyl)-1,2-dimethyl-4-imidazolesulfonamide hydrochloride]
TI of ischemic treated muscle [3, 4]: 2.30
change in vivo at 6 mg/kg [3, 5]: 12.2%
inhibition in vivo at 10 mg/kg [1]: 18%

CN(CCCNS(=O)(=O)c1cn(C)cn1)Cc1ccccc1 [Example 28, N-[3-(N-Benzyl-N-methylamino)-1-propyl]-1-methyl-4-imidazolesulfonamide hydrogenfumarate]
TI of ischemic treated muscle [3, 4]: 2.27
change in vivo at 6 mg/kg [3, 5]: 14.6%

CCOC(=O)COc1ccc(N2CCN(S(=O)(=O)c3ncn(C)c3Cl)CC2)cc1 [Example 58, Ethyl 4-[4-(5-chloro-1-methyl-4-imidazolesulfonyl)piperazinyl]phenoxyacetate]
TI of ischemic treated muscle [3, 4]: 2.07
change in vivo at 6 mg/kg [3, 5]: -1.9%

Cl.Cn1cnc(S(=O)(=O)NCCCCCN2CCOCC2)c1 [Example 11, N-(5-morpholinopentyl)-1-methyl-4-imidazolesulfonamide hydrochloride]
TI of ischemic treated muscle [3, 4]: 2.52
change in vivo at 6 mg/kg [3, 5]: 22.9%

CCn1cnc(S(=O)(=O)NCCCN2CCOCC2)c1 [Example 37, N-(3-Morpholinopropyl)-1-ethyl-4-imidazolesulfonamide hydrogenfumarate]
TI of ischemic treated muscle [3, 4]: 2.09
change in vivo at 6 mg/kg [3, 5]: -7.9%

CNCCCNS(=O)(=O)c1cn(C)cn1.Cl [Example 62, N-(3-Methylamino-1-propyl)-1-methyl-4-imidazolesulfonamide hydrochloride]
TI of ischemic treated muscle [3, 4]: 2.5
change in vivo at 6 mg/kg [3, 5]: 27.8%

Cn1cnc(S(=O)(=O)N2CCSCC2)c1 [Example 42, 4-(1-Methyl-4-imidazolesulfonyl)tetrahydro-4H-1,4-thiazine]
TI of ischemic treated muscle [3, 4]: 2.84
change in vivo at 6 mg/kg [3, 5]: 24.6%
